# Test results taken from patent US20220184000A1, “USE OF CANNABIDIOL IN THE TREATMENT OF DRAVET SYNDROME” (priority 2019, published 2022).
# Key:
# Format in all cases: in vivo
# Scn1a^+/− mice [1] = assay: Gait test, Study II; details: CBD 100 mg/kg s.c. twice daily
# Procedure: (§1) Here, Scn1a^+/− were randomly divided into two groups and subcutaneously injected with either CBD (100 mg/kg twice daily; n=12) or its vehicle (ethanol:Kolliphor®:0.9% saline=2:1:17; n=29) from P8 onwards until P52 or death (whichever was earlier).
# Gait test was conducted to assess the cerebellar function of the animals (Patel & Hillard, 2001). In this test, the hind paws of each mouse were marked with a non-toxic ink and the mouse was allowed to walk on a white paper (50×10 cm) placed on the floor of a custom-made plexiglass tunnel (50×10×10 cm). To obtain the left and right stride length, the distance between two ipsilateral paw prints was measured, whereas stride width was calculated from the distance between a footprint and its contralateral stride length at right angle (Wecker et al., 2013). The initial and last footprints were not considered in measurements. All the animals were habituated to the test procedures and the apparatus for 2 days prior to the test. On the day of test, two trials were conducted for each animal to obtain mean stride length (left or right) and width for that animal.
# In Study II, the data were analysed in GraphPad Prism 6 software. Survival curves of Scn1a^+/− vehicle-treated and Scn1a^+/− CBD-treated group were compared using a Mantel-Cox test. The percentage of animals from the Scn1a^+/− vehicle-treated and Scn1a^+/− CBD-treated groups that survived until the end of the study (P52) were compared by Fisher's exact test. Further, data obtained from the comorbidity assessment were checked for normality by D'Agostino & Pearson omnibus normality test. Data obtained from rotarod, gait, social interaction (active interaction), EPM, sucrose preference, RAM (RME) tests were normally distributed and the differences between the three groups were analysed by one-way ANOVA. […] Parametric data are presented in scattered dot plot in the figures and are expressed as mean±SEM. Non-parametric data are presented in box plot in the figures and are expressed as median, min to max, and interquartile range (IQR). […]
# Scn1a^−/− mice = assay: Survival in Scn1a^−/− mice, Study I (acute model of Dravet syndrome); details: CBD-treated Scn1a^−/− mice; 100 mg/kg s.c. twice daily from P8; n=10; vehicle 15.5 days; Mantel-Cox p=0.003; FIG. 1B
# Procedure: (§2) Following genotyping, animals were randomly divided into four groups WT vehicle-treated, WT CBD-treated, Scn1a^−/− vehicle-treated and Scn1a^−/− CBD-treated (n=10/group). They were injected subcutaneously twice daily with either CBD (100 mg/kg) or its vehicle (ethanol:Kolliphor®:0.9% saline=2:1:17) from P8 until P25 or death (whichever was earlier).
# Animal suffering was minimised by employing a validated, welfare scoring system alongside a mathematical model to predict death. In this way, any animal for which the model predicted death could be sacrificed 0.5 day before enduring the maximal severity of the disease.
# Additionally, surface temperature (ST) threshold was employed such that if the sum of the ST scores over the last 1.5 days, was equal to or greater than 3, the animal would be killed by cervical dislocation within 0.5 day.
# In Study I, the welfare parameters were analysed using SPSS 24 (IBM SPSS Statistics®, UK), whilst survival data were analysed using GraphPad Prism 6 software (GraphPad Software, Inc., USA). Data obtained from welfare parameters were compared using a three-way ANOVA to observe the main effects of treatment, genotype and time, and their two-way and three-way interactions. […] All the data are expressed as mean±SEM. […]
# wild type (WT) mice = assay: Neonatal welfare scoring (TNW) in wild type mice, Study I
# Procedure: 129S-Scn1a^tm1Keammjax heterozygote mice (Jackson Laboratory, USA) were maintained in and bred together to obtain Scn1a^−/− and wild type (WT) animals used for this Study (n=10 per group).
# as §2
# A twice daily welfare check was conducted throughout the entire duration of the study. Drug administration was conducted at 0800 h and followed by welfare checks. Conversely, afternoon welfare checks were conducted from 1600 h and followed by drug administration in order to provide the maximum possible time between doses. […]
# The parameters used for the welfare assessment were: weight, natural activity (NA; 0-3), reflex/response to touch (RT; 0-3), orbital tightening (OT; 0-2), and body condition score (BC; 1-3). A total neonatal welfare score (TNW; range 0-8) was calculated by adding together scores from NA, RT, and […].
# In Study I, the welfare parameters were analysed using SPSS 24 (IBM SPSS Statistics®, UK), whilst survival data were analysed using GraphPad Prism 6 software (GraphPad Software, Inc., USA). […] All the data are expressed as mean±SEM. […]
# Scn1a^+/− mice [2] = assay: Elevated plus maze (EPM) test, anxiety-like behaviour, Study II; details: CBD 100 mg/kg s.c. twice daily
# Procedure: as §1
# The elevated plus maze (EPM) test was performed to assess the level of anxiety in animals (M. Chen et al., 2017). The wooden test apparatus consists of two closed arms (50×10×40 cm) and two open arms (50×10 cm) connected via a central platform (10×10 cm) and raised at a height of 50 cm above the floor. Each animal was placed on the central platform facing towards an open arm. Activity was video recorded (Swann SRDVR-16440H, UK) for 5 minutes. The video files were blinded and coded offline at the end of all experiments using Observer XT 12 (Noldus, Netherlands). Time spent on open arms was inversely related to the level of anxiety.
# In Study II, the data were analysed in GraphPad Prism 6 software. […] Data obtained from rotarod, gait, social interaction (active interaction), EPM, sucrose preference, RAM (RME) tests were normally distributed and the differences between the three groups were analysed by one-way ANOVA. […] Parametric data are presented in scattered dot plot in the figures and are expressed as mean±SEM. Non-parametric data are presented in box plot in the figures and are expressed as median, min to max, and interquartile range (IQR). […]
structure (smiles),measurement,setting,value
"C=C(C)[C@@H]1CCC(C)=C[C@H]1c1c(O)cc(CCCCC)cc1O [CBD, cannabidiol]",stride width between the three groups,"Scn1a^+/− mice [1]; p=0.17, FIG. 3E",no significant change
same,left stride length between the three groups,"Scn1a^+/− mice [1]; p=0.44, FIG. 3C",no significant change
same,right stride length between the three groups,"Scn1a^+/− mice [1]; p=0.44, FIG. 3D",no significant change
same,median survival,Scn1a^−/− mice,16.25 days
same,TNW score versus WT vehicle-treated animals (post hoc),"wild type (WT) mice; P8-P8.5, first day of treatment, CBD 100 mg/kg s.c. twice daily, p<0.05, FIG. 1A",improved TNW score
same,mean total neonatal welfare (TNW) score,"wild type (WT) mice; WT CBD-treated group, CBD 100 mg/kg s.c. twice daily from P8 until P25, n=10, mean±SEM, score range 0-8, vehicle group 0.39±0.04",0.24±0.04
same,"time spent on open arms (EPM), Scn1a^+/− CBD-treated versus WT vehicle-treated",Scn1a^+/− mice [2]; p=0.73,not different
same,"time spent on open arms (EPM), Scn1a^+/− vehicle-treated compared to Scn1a^+/− CBD-treated","Scn1a^+/− mice [2]; statement describes vehicle group relative to CBD group (n=10), p=0.02, FIG. 4C",significantly less time on the open arms
